Here are results for eight compounds from PubChem BioAssay (NCI).

The structures appear in SMILES notation. Where “and” joins values, the source holds several entries; their conditions need not be identical. Equal values may be shown once.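 Each compound was tested at five concentrations against cells in 96-well plates for 48 hours. At the GI50, growth is halved. The concentration for full growth arrest is given as TGI.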 A value given as a limit tells only on which side of the number the result lay.

Holding throughout (test): growth of human tumour cells (NCI), 48 h
For experiment [1], the system named is HCC-2998 colon.
Experiment [2] has as its system OVCAR-5 ovarian.
For experiment [3], the system named is ACHN renal.
The test system of experiment [4] is OVCAR-8 ovarian.
The test system of experiment [5] is UACC-257 melanoma.
Experiment [6] relates to SK-MEL-2 melanoma.
The test system of experiment [7] is NCI-H460 lung.
The test system of experiment [8] is HL-60(TB) leukemia.
For experiment [9], the system named is KM12 colon.
Experiment [10] concerns HCT-15 colon.

Turning to `Cc1nc2ccccc2c(=O)n1/N=C(\N=Nc1cc(Cl)ccc1Cl)c1cccc(-c2ccco2)c1`, the TGI in experiment [1], in experiment [2], in experiment [3], in [4], in experiment [5] and in experiment [6] was > 100 µM each time. Moreover, the TGI in [7] was > 100 µM; in experiment [8] it was > 10 µM; in experiment [9], > 100 µM; in [10], > 100 µM.

`COc1ccc(C2=Nc3ccccc3SC(C)C2)cc1` (stereo not given): the TGI in experiment [1], in experiment [2], in experiment [3], in [4], in experiment [5] and in experiment [6] was > 100 µM each time. Moreover, the TGI in experiment [7], in experiment [8], in experiment [9] and in [10] was > 100 µM each time.

As to `O=C(/C=C/C12c3ccccc3C(c3ccccc31)C1C(=O)N(c3ccccc3)C(=O)C12)c1ccc(Cl)cc1` (stereo not given), the GI50 in [1] was 1.7 µM; in [2] it was 1.6 µM; in experiment [3], 1.39 µM; in [4], 1.43 µM; in experiment [5], 2.13 µM; in experiment [6], 2.48 µM. Besides, the GI50 is 1.64 µM in experiment [7], 0.795 µM in [8], 2.18 µM in experiment [9] and 1.19 µM in experiment [10]. Moreover, the TGI in [1] was 3.66 µM; in experiment [2], 4.66 µM; in experiment [3] it was 2.81 µM; in experiment [4] it was > 100 µM; in experiment [5], 5.5 µM; in experiment [6], 5.86 µM. The TGI in [7] is 3.7 µM; in [8] it was 5.18 µM; in experiment [9], > 100 µM; in [10], 6.46 µM.

With `[C-]#[O+].[Cl][Sn]([Cl])[Cl].[Cl][Sn]([Cl])[Cl].[Pt].c1ccc([PH+](c2ccccc2)c2ccccc2)cc1.c1ccc([PH+](c2ccccc2)c2ccccc2)cc1`, the GI50 in experiment [1] was 60.7 µM; in experiment [2], 88 µM; in experiment [3], 26.4 µM; in [4] it was 22.5 µM; in experiment [5], 37.7 µM; in [6], 34 µM. The GI50 is 33.8 µM in [7], 25.4 µM in [8], 42.3 µM in [9] and 49.9 µM in [10]. Moreover, the TGI is > 100 µM in experiment [1]; > 100 µM in experiment [2]; > 100 µM in experiment [3]; 65.7 µM in experiment [4]; > 100 µM in experiment [5]; > 100 µM in experiment [6]. In addition, the TGI in [7] is > 100 µM; in experiment [8], 69.1 µM; in [9] it was > 100 µM; in [10], > 100 µM.

In the case of `NC(N)=NS(=O)(=O)c1ccc(Nc2c3ccccc3nc3c(C(=O)N4CCN(CCO)CC4)cccc23)cc1`, the TGI in experiment [1], in experiment [2], in [3], in experiment [4], in experiment [5] and in experiment [6] was > 100 µM throughout. Besides, the TGI in experiment [7], in experiment [8], in experiment [9] and in experiment [10] was > 100 µM in each case.

As to `COc1cc(NS(C)(=O)=O)ccc1Nc1c2ccccc2nc2c(C)cccc12`, the GI50 is 0.645 µM and 0.695 µM in experiment [1]; 0.571 µM and 0.572 µM in [2]; 0.0427 µM and 0.0464 µM in experiment [3]; 0.233 µM and 0.23 µM in experiment [4]; 0.792 µM and 0.639 µM in experiment [5]; 6.54 µM and 1.72 µM in [6]. The GI50 in experiment [7] is 0.0175 µM and 0.022 µM; in [8] it was 0.0403 µM and 0.046 µM; in experiment [9], 0.416 µM and 0.558 µM; in experiment [10], 0.202 µM and 0.242 µM. In addition, the TGI in [1] is 6.32 µM and 5.51 µM; in experiment [2] it was 13.9 µM and 11.9 µM; in experiment [3] it was 1.28 µM and 1.57 µM; in experiment [4], 7.08 µM and 11.6 µM; in experiment [5], 12.1 µM and 13.5 µM; in experiment [6], 20.8 µM and 10.4 µM. Also, the TGI in experiment [7] is 1.1 µM and 1.08 µM; in [8], 0.889 µM and 0.669 µM; in experiment [9] it was 2.42 µM and 3.74 µM; in experiment [10], 2.61 µM and 3.53 µM.

On to `COc1cc(N2CCN(C(C)C)CC2)ccc1Nc1nc(Nc2cccc3ncccc23)c2cc[nH]c2n1`, for which the GI50 in [1] is 3.17 µM; in [2], 2.5 µM; in [3], 7.45 µM; in experiment [4], 5.86 µM; in experiment [5], 3.67 µM; in [6], 4.63 µM. Further, the GI50 in [7] is 6.16 µM; in experiment [8], 3.26 µM; in experiment [9], 5.56 µM; in experiment [10], 4.35 µM. Further, the TGI in experiment [1] was 9.77 µM; in experiment [2] it was > 25 µM; in experiment [3], > 25 µM; in experiment [4], > 22.7 µM; in [5], 8.14 µM; in experiment [6] it was 11.5 µM. Moreover, the TGI in experiment [7] was > 23.5 µM; in experiment [8], 14.8 µM; in experiment [9], > 25 µM; in experiment [10] it was > 21.6 µM.

Take `Cc1csc(/C=N/NC(=O)c2nnn(-c3ccnc4c(C(F)(F)F)cccc34)c2C)c1`: the GI50 in experiment [1] was > 100 µM; in [2], > 100 µM; in [3], 63.8 µM; in experiment [4], 74.1 µM; in [5], 14 µM; in [6], > 100 µM. For the same compound, the GI50 was > 100 µM in [7], 50.3 µM in [8], > 100 µM in experiment [9] and 36.9 µM in [10]. For the same compound, the TGI in experiment [1] is > 100 µM; in experiment [2], > 100 µM; in experiment [3] it was > 100 µM; in experiment [4], > 100 µM; in experiment [5], 51.4 µM; in experiment [6] it was > 100 µM. For the same compound, the TGI in experiment [7], in experiment [8], in experiment [9] and in [10] was > 100 µM throughout.
